# Laboratory results from patent US7087620B2, “Liquid pharmaceutical formulations containing 3,7-diazabicyclo[3,3,1]nonane compounds and methods of treatment relating to anti-arrhythmic events” (Solvay Pharmaceuticals GmbH, priority 2002, dated 2006).
# “Also recorded” adds a separate entry of the source.
# Key:
# [1] = system: patients with atrial fibrillation or flutter; experiment: Safety and tolerability of intravenous tedisamil in patients with atrial fibrillation or flutter; format: in vivo, human
# Protocol: The safety objective was: To determine the safety and tolerability of tedisamil versus placebo.
# Safety was monitored regarding: Physical examination, ECG, 24-hour Holter monitoring, vital signs, laboratory evaluations and adverse events.
# The intent-to-treat patient sample was analyzed for efficacy. All tests were two-sided and a p-value <0.05 was considered significant. Differences in percentages of conversion were compared among the treatment groups using the Pearson chi-square statistic. Safety analysis was conducted on the safety patient sample. Numbers and percentages of patients with adverse events were calculated for each treatment group, using MedDRA preferred terms and body systems. Descriptive statistics were summarized by treatment group for changes from baseline in QT, heart rate and blood pressure.
# Physical examination, ECG, 24-hour Holter monitoring, vital signs, laboratory evaluations and adverse events.
# [2] = system: healthy male subjects; experiment: Two step infusion study in healthy male subjects: pharmacodynamics (12-lead ECG: QT, QTc, heart rate); format: in vivo, human; settings: for Pharmacodynamic action on QT, QTc interval and heart rate: over two hours post dosing
# Protocol: A double-blind, placebo-controlled, randomized, single iv dose, two periods cross-over study to assess the safety, tolerability, pharmacodynamics and pharmacokinetics during and following a two step infusion of Tedisamil in healthy male subjects was performed with the following drug and dosages: Tedisamil dihydrochloride/0.4 mg/kg body weight infused over 30 minutes.
# • 1. To assess safety and tolerability of tedisamil in healthy male subjects during and following a two step infusion scheme (0.4 mg/kg body weight infused over 30 minutes, with half of the dose infused over 10 minutes and half of the dose infused over the remaining 20 minutes). • 2. […] Methodology:
# This was a single center, double-blind, placebo-controlled, randomized, single iv dose, two period cross-over study. Subjects were randomly allocated to either treatment sequence tedisamil-placebo or placebo-tedisamil. Number of patients (planned, screened, randomized and analyzed): Planned: 18, Screened: 27, Randomized: 18, Analyzed: 18 in PK/PD and safety analyses.
# Subjects were included in the study only if they were healthy males, their age was in the range of 18-40 years (both inclusive), their body mass index (BMI) was between 18 kg/m^2 and 28 kg/m^2. Test product, dose and mode of administration: Tedisamil dihydrochloride; Strength: 2 mg/ml; Dose: 0.4 mg/kg body weight infused over 30 minutes, with half of the dose infused over 10 minutes and half of the dose infused over the remaining 20 minutes. Route: intravenous.
# 12-lead ECG.s were taken at several time points to explore the pharmacodynamic effects of Tedisamil (effects on QT and QTc) during and following infusion. The maximum value and maximum increase were derived for QTc and QT and the minimum value and maximum decrease were derived for heart rate. The AUC(0-24) and the maximum for the placebo-corrected QTc and QT and the AUC(0-24) and the minimum for the placebo-corrected heart rate were also calculated.
# Descriptive statistics were performed for the ECG intervals QT, QTc, RR, PR, QRS and for heart rate by treatment (tedisamil, placebo and “tedisamil−placebo”) and time point. Individual and mean (arithmetic mean±1 SD) time profiles for ECG intervals and heart rate were graphically presented for both treatments.
# Derived parameters, i.e. maximum value and maximum increase for QTc and QT, and minimum value and maximum decrease for heart rate were submitted to separate analyses of (co)variance (covariance only for maximum and minimum values) including subject, treatment, sequence, and period as class effects (and the individual pre-dose value as covariate). Point estimates and 95% confidence intervals were constructed for the difference “tedisamil−placebo” using the residual variance. Model assumptions were checked by visual inspection of residual plots. Additionally, descriptive statistics were calculated for the derived parameters per treatment and for the difference “tedisamil−placebo”.
# Descriptive statistics for the placebo corrected AUC(0-24) of QTc, QT and heart rate and the placebo corrected maximum effect (maximum for QTc and QT and minimum for heart rate) were calculated. In addition, 95% confidence intervals were derived based on normally distributed outcomes.
# [3] = two-step infusion regimen, 0.4 and 0.6 mg/kg
# [4] = 0.4 mg/kg tedisamil dihydrochloride iv, two step infusion over 30 minutes
# [5] = difference tedisamil−placebo, analysis of covariance, 0.4 mg/kg iv two step infusion
# [6] = difference tedisamil−placebo, analysis of variance, 0.4 mg/kg iv two step infusion
# [7] = placebo-corrected, 0.4 mg/kg iv two step infusion
compound,measurement,setting,value
"C1CCC2(C1)C1CN(CC3CC3)CC2CN(CC2CC2)C1 [Tedisamil, N,N′-dicyclopropylmethyl-9,9-tetramethylene-3,7-diazabicyclo[3,3,1]nonane]",TdP (Torsade de Point),"[1]; 30 min regimen, by gender",Almost all observed TdP (Torsade de Point) in 30 min regimen were in female patients
same,Gender difference in safety issues,[1]; first study (Phase II),male patients show less safety issues than female patients
same,DC cardioversion required for treatment of VTs,[1]; [3],no patient required DC cardioversion for treatment of VTs
same,Sustained polymorphic VT,[1]; [3],no sustained polymorphic VT were observed
same,Tolerability in patients,[1]; [3],well tolerated
same,"Heart Rate Max. Decrease, Arith. Mean (SD)",[2]; [4],10.6 (3.8) bpm
same,"Heart Rate Minimum, Arith. Mean (SD)",[2]; [4],49.2 (7.0) bpm
same,"QT Interval Max. Increase, Arith. Mean (SD)",[2]; [4],76.0 (22.4) ms
same,"QT Interval Maximum, Arith. Mean (SD)",[2]; [4],474.2 (39.2) ms
same,"QTc Interval Max. Increase, Arith. Mean (SD)",[2]; [4],61.1 (30.3) ms
same,"QTc Interval Maximum, Arith. Mean (SD)",[2]; [4],455.9 (30.0) ms
same,"Heart Rate Minimum, Estimate (Ted-Pla)",[2]; [5],−4.01 bpm
same,"QT Interval Maximum, Estimate (Ted-Pla)",[2]; [5],58.4 ms
same,"QTc Interval Maximum, Estimate (Ted-Pla)",[2]; [5],34.0 ms
same,"Heart Rate Max. Decrease, Estimate (Ted-Pla)",[2]; [6],4.22 bpm
same,"QT Interval Max. Increase, Estimate (Ted-Pla)",[2]; [6],57.9 ms
same,"QTc Interval Max. Increase, Estimate (Ted-Pla)",[2]; [6],34.1 ms
same,"Pharmacodynamic action on QT, QTc interval and heart rate",[2]; two step infusion,"a marked prolongation of QT and QTc interval and a distinct decrease in heart rate; also recorded: strong effect on QT, QTc and heart in the first two hours post dosing"
same,"Pharmacodynamic action on QT, QTc interval and heart rate","[2]; two step infusion, listed as TEDI",a prolongation of QT and QTc intervals and a distinct decrease in heart rate
same,"Placebo-corrected Heart Rate AUC(0-24), Mean (SD)",[2]; [7],−13.5 (11.5) bpm
same,"Placebo-corrected Heart Rate Minimum, Mean (SD)",[2]; [7],−15.9 (6.0) bpm
same,"Placebo-corrected QT Interval AUC(0-24), Mean (SD)",[2]; [7],112.9 (382.9) ms
same,"Placebo-corrected QT Interval Maximum, Mean (SD)",[2]; [7],74.7 (36.7) ms
same,"Placebo-corrected QTc Interval AUC(0-24), Mean (SD)",[2]; [7],28.5 (170.5) ms
same,"Placebo-corrected QTc Interval Maximum, Mean (SD)",[2]; [7],63.9 (26.9) ms
same,"Effect on AUC(0-24) values of QT, QTc and heart rate","[2]; placebo-corrected, two step infusion",A significant effect of Tedisamil could not be found
